From US20060120980A1, “Novel dermatological composition using bio-activating organocatalysts” (priority 2004, published 2006)

Columns and labels:
[1] = appearance of the final solution (Cosmetics, formulary consideration); type: physicochemical; conditions: appearance of final solution after reaction with Cu
Excerpt: In certain aspects of the present invention, the catalyst system using transition metals (Cu or Fe) as trace catalytic metals, may require the presence of an optional redox agent (antioxidant) so as to produce H2O2. In order to form hydrogen peroxide, for example, it is necessary for the redox agent to reduce Cu^++ to Cu^+. […] In expanding the number of antioxidants, the following table was assembled after experimentation, based upon reactivity with Cu, the ability to reduce CoQ10 to H2CoQ10 and the appearance of the final solution (formulary consideration).

[2] = tested on: papilla-corium layer of skin; assay: bioreactive skin test (pin-head like projections, activation of the papilla-corium layer); type: in vivo; parameters: key: * = slight bioreactivity; *** = gross bioreactivity
Excerpt: In this assay, compounds are applied to the dermis of an animal and potentially bio-reactive compounds (i.e., those which might function as bio-activating organocatalysts) produce a multiplicity of very small, pin-head like projections on the epidermis produced by activation of the papilla-corium layer. […] The bioreactivity of the formula can be judged by the intensity and time of the reaction.
The formula according to the present invention which are bioreactive in a skin test show a multiplicity of very small, pin-head like projections on the epidermis produced by activation of the papilla-corium layer. […] The activation ensues for about 2-4 hours and is from slight to gross depending on the formulation and returns to the normal skin landscape. The bioreactivity of the formula can be judged by the intensity and time of the reaction.
Essentially, the skin cream formulations containing organocatalyst are tested on skin. Those compositions which are bioreactive in the skin test show a multiplicity of very small, pin-head like projections on the epidermis produced by activation of the papilla-corium layer. The activation continues for about 2-4 hours and is from slight to gross depending on the formulation and returns to the normal skin landscape. The bioreactivity of the formula can be judged by the intensity and time of the reaction.

[3] = solubility of organocatalyst in Eucerin skin cream (table comment); type: physicochemical; conditions: 20 % by weight in Eucerin skin cream
Protocol: In order to test the relative bioreactivity of organocatalysts according to the present invention, a number of potential organocatalysts were formulated into a skin cream using Eucerin™ at concentrations ranging from 2% to 25% by weight of the final skin cream formulation. These skin creams were formulated by dissolving the organocatalyst at a desired amount into the Eucerin. The formulated compositions were then tested for skin bioreactivity according to the method previously described hereinabove.

[4] = metal chelate; cited from earlier work
[5] = Table 1A, 2 % by weight in Eucerin skin cream
[6] = Table 1A, 25 % by weight in Eucerin skin cream
[7] = Table 1A, 20 % by weight in Eucerin skin cream

Compound: O=C(O)CCCC[C@@H]1CCSS1 (racemic) [Lipoic Acid]
- Cosmetics [1]: clear solution

Compound: O=C(O)[C@@H]1CC(O)CN1 (stereo partly shown) [1-4-hydroxyproline]
- Bioreactivity ([2]; Table 1, 2 % by weight): *
- Bioreactivity ([2]; Table 1, 25 % by weight): ***
- Bioreactivity [2, 5]: *
- Bioreactivity [2, 6]: ***

Compound: N[C@@H](Cc1ccccc1)C(=O)O [1-phenylalanine]
- Bioreactivity ([2]; Table 1, 20 % by weight): *
- Bioreactivity [2, 7]: *
- Comment (solubility) [3]: low solubility

Compound: CC(C)(C)OC(=O)[C@@H]1CCCN1 [1-proline-t-butyl ester]
- Bioreactivity ([2]; Table 1, 20 % by weight): ***
- Bioreactivity [2, 7]: ***

Compound: O=C(O)[C@@H]1CCCN1 [1-proline]
- Bioreactivity ([2]; in vivo): *** and *

Compound: O=C1NCC(C(=O)O)N1 (stereo not shown) [2-imidazolidone-4-carboxylic acid]
- Bioreactivity ([2]; Table 1, 2 % by weight): *
- Bioreactivity ([2]; Table 1, 20 % by weight): ***
- Bioreactivity [2, 5]: *
- Bioreactivity [2, 7]: ***

Compound: O=C(O)/C=C/c1ccc(O)c(O)c1 [Caffeic acid]
- Cosmetics [1]: dark brown ppt.

Compound: O=C([O-])CN(CCN(CC(=O)[O-])CC(=O)O)CC(=O)O.[Cu+2] [Copper EDTA]
- Affinity Constant [4]: 10^23

Compound: N[C@@H](Cc1c[nH]cn1)C(=O)O.[Cu] [Copper histidine]
- Affinity Constant [4]: 10^16

Compound: N[C@@H](CS)C(=O)O [Cysteine]
- Cosmetics [1]: clear solution

Compound: CC(=O)N(O)CCCCCNC(=O)CCC(=O)N(O)CCCCCNC(=O)CCC(=O)N(O)CCCCCN [Desferrioxamine]
- Affinity Constant [4]: 10^30

Compound: O=C([O-])CN(CCN(CC(=O)[O-])CC(=O)O)CC(=O)[O-].[Fe+3] [Ferric EDTA]
- Affinity Constant [4]: 10^25

Compound: Oc1ccccc1O.[Fe+3] [Ferric catechol]
- Affinity Constant [4]: 10^20

Compound: O=C(O)c1ccccc1O.[Fe+3] [Ferric salicylic acid]
- Affinity Constant [4]: 10^16

Compound: O=C([O-])CN(CCN(CC(=O)[O-])CC(=O)[O-])CC(=O)[O-].[Fe+2].[H+].[H+] [Ferrous EDTA]
- Affinity Constant [4]: 10^25

Compound: N[C@@H](Cc1c[nH]cn1)C(=O)O.[Fe+2] [Ferrous histidine]
- Affinity Constant [4]: 10^16

Compound: CC(O)C(=O)[O-].CC(O)C(=O)[O-].[Fe+2] (stereo not shown) [Ferrous lactate]
- Affinity Constant [4]: 10^12

Compound: O=C(O)c1cc(O)c(O)c(O)c1 [Gallic acid]
- Cosmetics [1]: ugly brown ppt.

Compound: N[C@@H](CCC(=O)N[C@@H](CS)C(=O)NCC(=O)O)C(=O)O [Glutathione]
- Cosmetics [1]: clear solution

Compound: O=C(O)CO [Glycolic acid]
- Affinity Constant [4]: 10^5

Compound: CC(=O)N[C@@H](CS)C(=O)O [N-acetyl cysteine]
- Cosmetics [1]: clear solution

Compound: CC(=O)N1CCC[C@H]1C(=O)O [N-acetyl-1-proline]
- Bioreactivity ([2]; Table 1, 20 % by weight): *
- Bioreactivity [2, 7]: *
- Comment (solubility) [3]: low solubility

Compound: CCCOC(=O)c1cc(O)c(O)c(O)c1 [Propyl gallate]
- Cosmetics [1]: ugly brown ppt.

Compound: O=c1[nH]c(=O)c2[nH]c(=O)[nH]c2[nH]1 [Uric acid]
- Cosmetics [1]: slightly colored ppt

Compound: O=C(O)C1CCCN1 (stereo not shown) [d,1-proline]
- Bioreactivity ([2]; in vivo): ***

Compound: O=C([O-])C(O)C(O)C(=O)[O-].[Na+].[Na+] (stereo not shown) [disodium tartrate, reference compound]
- Bioreactivity [2, 7]: no reactivity

Compound: CC(O)CO (stereo not shown) [propylene glycol, reference compound]
- Bioreactivity [2, 6]: no reactivity

Compound: C=C[C@H]1C[N@@]2CC[C@H]1C[C@@H]2[C@@H](O)c1ccnc2ccc(OC)cc12 [quinidine, reference compound]
- Bioreactivity ([2]; Table 1, 2 % by weight): *
- Bioreactivity [2, 5]: *

Compound: C=C[C@H]1CN2CC[C@H]1C[C@H]2[C@H](O)c1ccnc2ccc(OC)cc12.O=S(=O)(O)O [quinine hydrosulfate, reference compound]
- Bioreactivity ([2]; Table 1, 2 % by weight): *
- Bioreactivity [2, 5]: *

Compound: Copper gluconate
- Affinity Constant [4]: 10^6

Compound: Copper lacate
- Affinity Constant [4]: 10^10-10^12

Compound: Copper tripeptide (GHG)
- Affinity Constant [4]: 10^16

Compound: Vitamin E
- Cosmetics [1]: ugly brown ppt.
